Results on two molecules are retold here after publication PMC3784351 (Cancer chemotherapy and pharmacology, 2013).

Data set [1] has as its target T1, proton-coupled folate transporter (PCFT) (Homo sapiens, UniProt Q96NT5).
T1 sequence (Q96NT5 1-459): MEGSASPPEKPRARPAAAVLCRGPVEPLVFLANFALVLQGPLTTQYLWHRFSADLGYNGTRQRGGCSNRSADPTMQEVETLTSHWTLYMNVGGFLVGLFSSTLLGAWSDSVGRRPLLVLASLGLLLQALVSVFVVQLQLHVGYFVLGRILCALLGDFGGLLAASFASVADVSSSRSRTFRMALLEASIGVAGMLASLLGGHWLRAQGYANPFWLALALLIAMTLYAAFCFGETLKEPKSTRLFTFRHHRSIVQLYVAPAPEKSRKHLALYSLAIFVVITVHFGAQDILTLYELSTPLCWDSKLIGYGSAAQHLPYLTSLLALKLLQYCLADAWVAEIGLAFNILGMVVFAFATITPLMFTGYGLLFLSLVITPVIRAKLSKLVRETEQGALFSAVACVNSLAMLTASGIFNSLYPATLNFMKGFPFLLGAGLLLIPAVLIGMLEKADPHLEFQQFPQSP
Nature of the data set: tritiated influx in HeLa R1-PCFT versus R1-11 cells. Format: cell-based.

Substrate in data set [2]: C#CCC(Cc1cnc2nc(N)nc(N)c2n1)c1ccc(C(=O)N[C@@H](CCC(=O)O)C(=O)O)cc1
Nature of the data set: cells, lysate or membranes. Particulars: pH 7.4.

Consider `C#CCC(Cc1cnc2nc(N)nc(N)c2n1)c1ccc(C(=O)N[C@@H](CCC(=O)O)C(=O)O)cc1` (some centres unmarked) [pralatrexate], for which the “tritiated influx in HeLa R1-PCFT versus R1-11 cells (poor substrate)” value in data set [1] is on record as “among the antifolates tested, pralatrexate was the poorest substrate for PCFT”.

B1: reduced folate carrier (RFC) (Homo sapiens) (protein)
chain: MVPSSPAVEKQVPVEPGPDPELRSWRHLVCYLCFYGFMAQIRPGESFITPYLLGPDKNFTREQVTNEITPVLSYSYLAVLVPVFLLTDYLRYTPVLLLQGLSFVSVWLLLLLGHSVAHMQLMELFYSVTMAARIAYSSYIFSLVRPARYQRVAGYSRAAVLLGVFTSSVLGQLLVTVGRVSFSTLNYISLAFLTFSVVLALFLKRPKRSLFFNRDDRGRCETSASELERMNPGPGGKLGHALRVACGDSVLARMLRELGDSLRRPQLRLWSLWWVFNSAGYYLVVYYVHILWNEVDPTTNSARVYNGAADAASTLLGAITSFAAGFVKIRWARWSKLLIAGVTATQAGLVFLLAHTRHPSSIWLCYAAFVLFRGSYQFLVPIATFQIASSLSKELCALVFGVNTFFATIVKTIITFIVSDVRGLGLPVRKQFQLYSVYFLILSIIYFLGAMLDGLRHCQRGHHPRQPPAQGLRSAAEEKAAQALSVQDKGLGGLQPAQSPPLSPEDSLGAVGPASLEQRQSDPYLAQAPAPQAAEFLSPVTTPSPCTLCSAQASGPEAADETCPQLAVHPPGVSKLGLQCLPSDGVQNVNQ
For orientation: Km means the substrate concentration at which the rate is half of its maximum. Consider B1, for which the Km in data set [2] came to 0.52 ± 0.2 µM.
